Measured values taken from ChEMBL document CHEMBL3886309, “Spiro compounds useful as inhibitors of stearoyl-coenzyme A delta-9 desaturase” (2015).

The molecules below were run against T1, Stearoyl-CoA desaturase (Homo sapiens, UniProt O00767) (assay: Enzyme Activity Assay: The potency of compounds of formula I against the stearoyl-CoA desaturase was determined by measuring the conversion of radiolabeled stearoyl-CoA to oleoyl-CoA using rat liver microsome or human SCD1 following previously published procedures with some modifications (Joshi, et al., J. Lipid Res., 18: 32-36 (1977); Talamo, et al., Anal. Biochem, 29: 300-304 (1969)). Liver microsome was prepared from male Wistar or Sprague Dawley rats on a high carbohydrate diet for 3 days (LabDiet #5803, Purina). The livers were homogenized (1:10 w/v) in a buffer containing 250 mM sucrose, 1 mM EDTA, 5 mM DTT and 50 mM Tris-HCl (pH 7.5). After a 100,000xg centrifugation for 60 min, the liver microsome pellet was suspended in a buffer containing 100 mM sodium phosphate, 20% glycerol, 2 mM DTT, and stored at -78° C. Human SCD1 desaturase system was reconstituted using human SCD1 from a baculovirus/Sf9 expression system, cytochrome B5 and cytochrome B5 reductase.).
T1 sequence (O00767 whole entry): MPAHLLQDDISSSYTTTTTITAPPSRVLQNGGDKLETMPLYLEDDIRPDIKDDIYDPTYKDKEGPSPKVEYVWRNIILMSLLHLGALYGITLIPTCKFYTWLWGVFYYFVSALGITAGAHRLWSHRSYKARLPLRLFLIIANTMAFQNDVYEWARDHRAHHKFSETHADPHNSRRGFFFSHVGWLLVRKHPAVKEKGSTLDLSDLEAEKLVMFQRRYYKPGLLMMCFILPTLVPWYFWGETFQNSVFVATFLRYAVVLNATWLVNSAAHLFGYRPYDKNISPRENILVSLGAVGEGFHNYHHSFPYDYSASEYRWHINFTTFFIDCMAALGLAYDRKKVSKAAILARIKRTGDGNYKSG
Format: microsomes

| IC50 [nM] | SMILES |
| --- | --- |
| 17 | O=C(O)Cn1nnc(-c2cc(N3CCC4(CC3)CC(=O)c3c(Cl)cccc3O4)no2)n1 |
| 12 | O=C(O)Cn1nnc(-c2cnc(N3CCC4(CC3)CC(=O)c3c(Cl)cccc3O4)s2)n1 |
| 24 | O=C(O)Cn1nnc(-c2nnc(N3CCC4(CC3)CC(=O)c3c(Cl)cccc3O4)s2)n1 |
